Laboratory results from patent US20220218714A1, “METHOD OF TREATING CANCER” (Epizyme, Inc., priority 2013, published 2022).

Experiments:
[1] = system: H3K27me3 in HS-SY-II cells; assay: H3K27 methylation alterations, ELISA of extracted histones; type: cell-based, human; conditions: 96 hours treatment
Method: (§1) HS-SY-II and SW982 cells were treated with either DMSO or Compound A starting at 40 nmol/L and decreasing in fourfold dilutions for 96 hours. Cells were washed by ice cold PBS, harvested by cell scraper, and lysed with 100 μL of nuclear extraction buffer (10 mM Tris-HCl, 10 mM MgCl2, 25 mM KCl, 1% Triton X-100, 8.6% Sucrose, plus × Halt Protease inhibitor cocktail (1861281, Thermo Scientific). Nuclei were collected by centrifugation at 600 g for 5 minutes at 4° C. and washed once with ice cold PBS. Supernatant was removed and histones extracted for one hour with 100 μL of 0.4 N cold sulfuric acid. Extracts were clarified by centrifugation at 10,000 g for 10 minutes at 4° C. and transferred to a fresh microcentrifuge tube containing 1 mL of ice cold acetone. Histones were precipitated at −20° C. for overnight, pelleted by centrifugation at 10,000 g for 10 minutes and resuspended in 100 μl of water. Histones were quantified using the BCA protein assay (23225, Pierce). The diluted histones were coated on Immulon 4HBX plates (3855, Thermo Scientific) overnight and ELISA was performed. […] Subsequently, the developed colors in the wells were measured using a plate spectrophotometer (SpectraMax 250, Molecular Devices) at 450 nm (reference wavelength 650 nm).
(§2) The range of ICso values (two independent experiments), shown in FIG. 6B, were determined by GraphPad Prism (GraphPad Software).

[2] = system: H3K27me3 in SW982 cells; assay: as above; type: cell-based, human; conditions: 96 hours treatment
Method: as §1, §2

[3] = PK values in HS-SY-II xenograft model (plasma concentration, LC/MS/MS); type: in vivo, mice; conditions: oral twice daily for 7 days; 5 minutes before and 3 hours after the last dose
Method: HS-SY-II cells were harvested during mid-log phase growth, and resuspended in Hank balanced salt solution with 50% Matrigel (BD Biosciences). Balb/C-nu mice (Charles River Laboratories Japan) received 1×10^7 cells (0.1 mL cell suspension) subcutaneously in the right flank. Mice carrying tumors of approximately 200 mm^3 (31 days after injection) were sorted into treatment groups with similar mean tumor volumes. Compound A or vehicle (0.5% MC+0.1% Tween-80 in water) was administered at the indicated doses on twice a day for 7 days by oral gavage. Each dose was delivered in a volume of 0.2 mL/20 g mouse (10 mL/kg), and adjusted for the last recorded weight of individual animals. Peripheral blood samples were collected at approximately 5 minutes before and 3 hours after the last dose from Compound A-treated mice. After obtaining plasma samples by centrifugation, the analysis for plasma concentrations of Compound A was conducted by the liquid chromatography-tandem mass spectrometry (LC/MS/MS) method. The UPLC system (Acquity, Waters) equipped with a mass spectrometer (Quattro premier, MICROMASS) was used for quantification of Compound A. The concentrations are plotted (n=5) in FIG. 7A. Each bar represents a mean of plasma concentration in each group.

[4] = system: H3K27me3 in HS-SY-II xenograft; assay: H3K27me3 ELISA of HS-SY-II xenograft tumors harvested on Day 28; type: in vivo, athymic nude mice; conditions: Day 28, 3 h after the last dose; second study
Method: FIGS. 10A to 10C show mean in vivo tumor volumes for athymic nude mice bearing HS-SY-II xenografts. In a first study, mice were dosed with either vehicle (oral for 28 days or iv on Day 1 and Day 22), Compound A (oral: 125 mg/kg, 250 mg/kg, or 500 mg/kg for 28 days), or Doxorubicin (iv: 10 mg/kg, Day 1 and Day 22); tumor volumes were measured twice a week (FIGS. 10A and 10B). In a second study, mice were dosed with either vehicle (oral for 28 days), Compound A (oral: 250 mg/kg or 500 mg/kg for 28 days), Doxorubicin (iv: 10 mg/kg on Day 1 and Day 22), or a combination of Doxorubicin (iv: 10 mg/kg on Day 1 and Day 22) and Compound A (oral: 250 mg/kg for 28 days) (FIG. 10C). Tumors from animals of the second study were harvested on Day 28 (3 h after the last dose) and subjected to H3K27me3 analysis by ELISA (FIG. 10D) or IHC for the proliferation marker Ki67 (FIG. 10E).
For FIG. 10D, tumors were snap-frozen in liquid nitrogen. […] Histones were quantified using the BCA protein assay (23225, Pierce). […] Subsequently, the developed colors in the wells were measured using a plate spectrophotometer (SpectraMax 250, Molecular Devices) at 450 nm (reference wavelength 650 nm). The H3K27me3 levels were adjusted to total histone H3, and expressed as fold changes to vehicle control. […] Histones were extracted and quantified, and the levels of H3K27me3 were analyzed as described above. […]

## CCN(c1cc(-c2ccc(CN3CCOCC3)cc2)cc(C(=O)NCc2c(C)cc(C)[nH]c2=O)c1C)C1CCOCC1 [Compound A]
[1]
  ratio of H3K27me3/total H3 (ratio to control): decreased
[2]
  ratio of H3K27me3/total H3 (ratio to control): decreased
[3]
  plasma concentrations: Dose dependent exposure
[4]
  H3K27me3 levels in tumors (fold change to vehicle control): significantly reduced
